# From US6225478A, “Iridoid derivatives and neovascularization inhibitors containing the same as active ingredient” (Tsumura & Co., priority 1999, dated 2001)
# Assays:
# Type in all cases: cell-based
# [1] = test system: human umbilical-vein endothelial cells (HUVEC); assay: Cell Proliferation Assay (CPA) Test, HUVEC, MTT; settings: Homo sapiens, M199 (2+) medium, read-out: CPA (IC50 μg/ml)
# Summary of the method: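 HUVEC (7th subculture) seeded at 5×10^4 cells/ml in M-199 with 20% FCS, 10 ng/ml b-FGF and 10 ng/ml EGF, grown 24 h at 37 °C, 5% CO2. Compounds added from 1 mg/ml or 0.1 mg/ml samples in 5% DMSO-PBS(−), renewed with medium after 24 h, then cultured 48 h more. Read-out by MTT with 4 h incubation and SDS/HCl stop.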
# [2] = test system: human umbilical-vein endothelial cells (HUVEC); assay: Tube Formation Assay (TFA) Test, HUVEC in collagen gel; settings: Homo sapiens, HUVEC, 20 h, 20 hours, 40% or less judged remarkable, read-out: TFA (inhibition rate, %); for inhibition at 1 µg/mL: 1 μg/ml; for inhibition at 10 µg/mL: 10 μg/ml
# Summary of the method: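 HUVEC (7th subculture, 1×10^5 cells/ml) attached to collagen gel for 2 h at 37 °C, given sample and overlaid with collagen, then cultured 20 h at 37 °C, 5% CO2 in M-199 with 20% FCS, 30 ng/ml b-FGF and 0.1 μM PMA. Tube length measured by image analysis; % inhibition relative to positive and negative controls.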
# [3] = test system: human umbilical-vein endothelial cells (HUVEC); assay: Cell Migration Assay (CMA) Test, HUVEC (% relative to control); settings: Homo sapiens, HUVEC, 24 hours, 60% or less = remarkable inhibition, read-out: CMA (% relative to control); for activity at 1 µg/mL: 1 μg/ml; for activity at 10 µg/mL: 10 μg/ml
# Summary of the method: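 Confluent 7th-subculture HUVEC monolayers scraped with razor blade, then given M199 (2+) plus 40 or 4 μl of 1 mg/ml sample (in 5% DMSO-PBS) per 4.0 ml medium for 24 h at 37 °C. Methanol-fixed, Giemsa-stained; newly migrated cells counted microscopically in 1 mm×1 mm blocks, expressed versus M199 (2+) control.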
Structure (SMILES),IC50 [1] [µg/mL],inhibition at 1 µg/mL [2] [%],inhibition at 10 µg/mL [2] [%],activity at 1 µg/mL [3] [%],activity at 10 µg/mL [3] [%]
CNC(=O)OC1OC=C(C(=O)N(C)C)C2CC3OC3(C)C12 (stereo not shown) [compound 18],> 100,28.6,27.7,90.3,71.5
"CNC(=O)O[C@@H]1OC=C(C(=O)OC)[C@H]2C[C@@H]3O[C@]3(CCl)C12 (stereo in doubt) [compound 51, (1S,4aS,6S,7R,7aR)-6,7-epoxy-7-(chloromethyl)-1-(methylcarbamoyloxy)-1,4a,5,6,7,7a-hexahydrocyclopenta [c]pyrane-4-carboxylic acid methylester]",> 100,19.1,-1.4,102,101
